What was measured:
[1] = system: S. aureus (MSSA); assay: CLSI broth microdilution MIC; type: cell-based, Staphylococcus aureus; details: strain UAMS-1, the strain's MIC used for time-kill assays
Source text: In some examples, compounds can be further assayed using the Mueller Hinton (MH) broth antibacterial assay as specified by the Clinical and Laboratory Standards Institute MIC broth microdilution protocol (see Methods for Dilution Antimicrobial Susceptibility Tests for Bacteria That Grow Aerobically; Approved Standard, In The Clinical and Laboratory Standards Institute (CLSI, formerly NCCLS), 7th ed., January 2006, 26 (2), M7-A7; see also Performance Standards for Antimicrobial Susceptibility Testing; Eighteenth Informational Supplement, In The Clinical and Laboratory Standards Institute (CLSI, formerly NCCLS), January 2008, 28 (1), M100-S18).
With the exception of RN4220-derivatives, in vitro activities of RNPA1000 against bacteria were determined by the broth microdilution method according to the Clinical and Laboratory Standards Institute (CLSI) guidelines using cation adjusted Mueller-Hinton broth or MH broth supplemented with 5% lysed horse blood (for testing Streptotococcus spp.). Microtiter plates containing serial dilutions of RNPA1000 (0, 4, 8, 16, 32, 64, and 128 μg/ml) were inoculated with 10^5 colony forming units (CFU)/ml and incubated for 18 hr at 37° C. […] The MIC value for each S. aureus strain was determined to be the median score of replicate measurements (n=5). Wells containing concentrations of RNPA1000≧MIC were plated for minimal bactericidal measurement. Where possible, experiments with VRSA strains were performed in a laminar flow hood to minimize potential for equipment contamination. For RN4220 cells containing plasmid vector (pCN51), RnpA overproducing plasmid (pRNPA-S) or RnpA underproducing plasmid (pRNPA-A.S.) in vitro antimicrobial activity of RNPA1000 was performed by the microdilution method as described above, except that cells were grown in Tryptic Soy Broth medium supplemented with 2.5 μM CdCl2 and 0, 1, 2, 4, 8, 16, 32, 64, or 128 μg/ml RNPA1000. Time-kill assays were also performed to monitor the antimicrobial properties of RNPA1000 for S. aureus strain UAMS-1 in the absence and presence of 0.25, 0.5, 2, and 4 times the strain's MIC for oxacillin (1 μg/ml), rifampicin (0.5 μg/ml), vancomycin (2 μg/ml), or daptomycin (1 μg/ml). The indicated amount of RNPA1000 and/or commercial antibiotic were added to mid-exponential phase (2×10^8 cfu/ml) S. aureus strain UAMS-1 cells and incubated at 37° C. Aliquots were removed at 0, 2, 4, 8, and 24 hr post-antimicrobial challenge, serial diluted, and plated to enumerate resulting cfu/ml. All time-kill assays were repeated at least 3 times.

[2] = system: biofilm-associated S. aureus strain UAMS-1; details: Weiss et al. 2009, cited from earlier work; for clearance of biofilm-associated S. aureus: 20× MIC over 3 days; for maximal decrease in biofilm-associated bacteria: same model and conditions
[3] = system: S. aureus strain Smith; assay: acute lethal model of infection; type: in vivo, CD-1 mice; details: 5 days
Experimental: Because RNPA1000 was not toxic during short- and only mildly toxic during extended-HepG2 exposure, it could serve as an appropriate tool to assess whether RnpA-inhibitory molecules are efficacious in a systemic mouse infection model. […] RNPA1000 was solubilized in 1:1 mixture of DMSO and PEG400; Vancomycin was prepared in water. Animals (5/dose group) were administered 16, 64, and 256 mg/kg or 0.25, 1, 4, and 16 mg/kg of RNPA1000 or Vancomycin, respectively, at 30 min post infection by subcutaneous injection (0.2 ml). The percent surviving animals receiving no treatment, a single dose of Vancomycin, or RnpA-inhibitor was recorded daily over the course of the study (5 days).
Percent survival refers to a consensus of surviving animals following 5 days post-intraperitoneal S. aureus injection and RNPA1000 administration. The number in parentheses indicates the number of times the experiment was repeated. Each member of non-treated control mice expired within 24 hr bacterial inoculation (0 mg/kg). Vancomycin served as a positive control.

Compound | MIC of commercial antibiotic [1] [µg/mL] | clearance of biofilm-associated S. aureus [2] | maximal decrease in biofilm-associated bacteria [2] [log] | % Survival ([3]; Vancomycin 0.25 mg/kg s.c.) [%] | % Survival ([3]; Vancomycin 1 mg/kg s.c.) [%] | % Survival ([3]; Vancomycin 4 mg/kg s.c.) [%] | % Survival ([3]; Vancomycin 16 mg/kg s.c.) [%]
CCCCCCCCCC(=O)N[C@@H](Cc1c[nH]c2ccccc12)C(=O)N[C@H](CC(N)=O)C(=O)N[C@@H](CC(=O)O)C(=O)N[C@@H]1C(=O)NCC(=O)N[C@@H](CCCN)C(=O)N[C@@H](CC(=O)O)C(=O)N[C@H](C)C(=O)N[C@@H](CC(=O)O)C(=O)NCC(=O)N[C@H](CO)C(=O)N[C@@H]([C@H](C)CC(=O)O)C(=O)N[C@@H](CC(=O)c2ccccc2N)C(=O)O[C@@H]1C [daptomycin] | 1 | none of these antibiotics cleared | 6 | – | – | – | –
Cc1onc(-c2ccccc2)c1C(=O)N[C@@H]1C(=O)N2[C@@H]1SC(C)(C)[C@@H]2C(=O)O [oxacillin] | 1 | – | – | – | – | – | –
CN[C@H](CC(C)C)C(=O)N[C@H]1C(=O)N[C@@H](CC(N)=O)C(=O)N[C@H]2C(=O)N[C@H]3C(=O)N[C@H](C(=O)N[C@H](C(=O)O)c4cc(O)cc(O)c4-c4cc3ccc4O)[C@H](O)c3ccc(c(Cl)c3)Oc3cc2cc(c3O[C@@H]2O[C@H](CO)[C@@H](O)[C@H](O)[C@H]2O[C@H]2C[C@](C)(N)[C@H](O)[C@H](C)O2)Oc2ccc(cc2Cl)[C@H]1O [Vancomycin, vancomycin, reference compound] | 2 | none of these antibiotics cleared | 4 | 0 | 100 | 100 | 100
CC(=O)NC[C@H]1CN(c2ccc(N3CCOCC3)c(F)c2)C(=O)O1 [linezolid] | – | none of these antibiotics cleared | 5 | – | – | – | –
CO[C@H]1/C=C/O[C@@]2(C)Oc3c(C)c(O)c4c(O)c(c(/C=N/N5CCN(C)CC5)c(O)c4c3C2=O)NC(=O)/C(C)=C\C=C\[C@H](C)[C@H](O)[C@@H](C)[C@@H](O)[C@@H](C)[C@H](OC(C)=O)[C@@H]1C [rifampicin] | 0.5 | – | – | – | – | – | –
